Source: patent US12485140B2, “Transmission prevention of viruses with application of antiseptic composition” (Solventum Intellectual Properties Company, priority 2019, dated 2025)

Assays:
[1] = test system: SARS-CoV-2 virus; test: In vitro viricidal assay against SARS-CoV-2 (CCID50 end-point titer on Vero 76 cells); conditions: 22 ± 2° C.; for Log Reduction Value (LRV): compared to the virus control; for Virus Titer: mean of 3 replicates
[2] = test system: Vero 76 cells; conditions: African green monkey

SMILES: CCO [CE19, Ethanol]
- Log Reduction Value (LRV) ([1]; incubation time 0.5 min): 2.4
- Virus Titer ([1]; incubation time 0.5 min): <1.7 Log10 CCID50 of virus per mL
- Log Reduction Value (LRV) ([1]; incubation time 1 min): 2.1
- Virus Titer ([1]; incubation time 1 min): <1.7 Log10 CCID50 of virus per mL
- Log Reduction Value (LRV) ([1]; incubation time 2 min): 2.3
- Virus Titer ([1]; incubation time 2 min): <1.7 Log10 CCID50 of virus per mL
- dilutions of the neutralized sample showing toxicity toward Vero 76 cells [2]: 1/10 dilution
